Laboratory results from patent US7704979B2, “Materials and methods for the treatment or prevention of obesity” (The University of Tennessee Research Foundation, priority 2000, dated 2010).
Values belong to the compound of their own block, whether it stands above or below them.

Legend:
human adipocytes [1] = assay: Isoproterenol-stimulated lipolysis in human adipocytes (Example 4); assay type: cell-based
Description: (§1) A human adipocyte cell line and primary-cultured human adipocytes were both used as cell models in this study. The human adipocyte cell line was differentiated from human preadipocytes obtained from Zen-Bio Inc. (Research Triangle Park, N.C.). Human preadipocytes were inoculated in Dulbecco's Modified Eagle' Medium (DMEM)/Ham' F-10 medium (F-10) (1:1, v/v) containing 10% fetal bovine serum (FBS), 15mM Hepes and antibiotics at a density of 30,000 cells/cm^2. Confluent monolayers of preadipocytes were induced to differentiate with a standard differentiation medium consisting of DMEM/F-10 (1:1, v/v) medium supplemented with 15 mM Hepes, 3% FBS, 33 μM biotin, 17 μM pantothenate, 100 nM insulin, 0.25 mM methylisobutylxanthine (MIX), 1 μM dexamethasome, 1 μM BRL49653 and antibiotics. Preadipocytes were maintained in this differentiation medium for 3 days and subsequently cultured in adipocyte medium in which BRL49653 and MIX were withdrawn. Cultures were re-fed every 2-3 days (Shi, H., et al., “Role of intracellular calcium in human adipocyte differentiation,” Phyisol. Genomics. (2000) pp. 75-82, vol. 3.). Primary-cultured human adipocytes were derived from human subcutaneous adipose tissue obtained from patients undergoing abdominal plastic surgery with no known history of metabolic disorders. […]

human adipocytes [2] = assay: Intracellular Ca2+ in primary cultures of human adipocytes (fura-2 fluorometry); assay type: cell-based; conditions: read-out: EC50 for increase in intracellular Ca2+
Description: Human subcutaneous adipose tissue was obtained from patients with no known history of metabolic disorders undergoing abdominal plastic surgery. Adipocytes were isolated by washing, mincing, collagenase digestion, and filtration as described previously and cultured in Dulbecco's modified Eagle's medium supplemented with 1% fetal bovine serum, penicillin (100 IU/ml), streptomycin (100 μg/ml), and gentamicin (50 μg/ml). Cells were cultured in suspension and maintained in a thin layer at the top of the culture media, which was changed every day. Cells were studied about 72 hours after isolation and were serum-starved prior to study.
Intracellular Ca^2+ was determined fluorometrically as described previously. Cells were washed with HEPES-buffered salt solution loaded with fura-2-acetoxymethyl ester (10 μM) for 45 minutes at 37° C. in the dark with continuous shaking. Cells were then rinsed three times, resuspended, and intracellular Ca^2+ was measured using dual excitation (340 and 380 nm)/single emission (510 nm) fluorometry. After the establishment of a stable baseline, the response to 1,25-(OH)2-D or parathyroid hormone (10 pM-100 nM) or their respective vehicles was determined. Digitonin (25 μM) and Tris/EGTA (100 mM, pH 8.7) were used to for calibration to calculate the final intracellular Ca^2+.

human adipocytes [3] = assay: Forskolin-stimulated lipolysis (glycerol release) in human adipocytes; assay type: cell-based; conditions: data not shown
human adipocytes [4] = assay: Basal lipolysis (glycerol release) in human adipocytes (Example 4); assay type: cell-based
Description: as §1

human adipocytes [5] = assay: Human adipocyte [Ca2+]i, fura-2 imaging (Example 4); assay type: cell-based
human adipocytes [6] = assay: FAS activity in human adipocytes (Example 4); assay type: cell-based
Description: A human adipocyte cell line and primary-cultured human adipocytes were both used as cell models in this study. The human adipocyte cell line was differentiated from human preadipocytes obtained from Zen-Bio Inc. (Research Triangle Park, N.C.). Human preadipocytes were inoculated in Dulbecco's Modified Eagle' Medium (DMEM)/Ham' F-10 medium (F-10) (1:1, v/v) containing 10% fetal bovine serum (FBS), 15mM Hepes and antibiotics at a density of 30,000 cells/cm^2. Confluent monolayers of preadipocytes were induced to differentiate with a standard differentiation medium consisting of DMEM/F-10 (1:1, v/v) medium supplemented with 15 mM Hepes, 3% FBS, 33 μM biotin, 17 μM pantothenate, 100 nM insulin, 0.25 mM methylisobutylxanthine (MIX), 1 μM dexamethasome, 1 μM BRL49653 and antibiotics. Preadipocytes were maintained in this differentiation medium for 3 days and subsequently cultured in adipocyte medium in which BRL49653 and MIX were withdrawn. Cultures were re-fed every 2-3 days (Shi, H., et al., “Role of intracellular calcium in human adipocyte differentiation,” Phyisol. Genomics. (2000) pp. 75-82, vol. 3.). Primary-cultured human adipocytes were derived from human subcutaneous adipose tissue obtained from patients undergoing abdominal plastic surgery with no known history of metabolic disorders. This protocol was approved by the Institutional Review Board for Human Subjects and the Committee for Research Participation of the University of Tennessee. Adipocytes were isolated according to the teachings of (Shi, H., et al., “Role of the sulfonylurea receptor in regulating human adipocyte metabolism,” FASEB. J. (1999) pp. 1833-38, vol. 13.). […] FAS and GPDH activity was determined spectrophotometrically in crude cytosolic extracts of human adipocytes as previously described (Shi, H., et al., “Role of the sulfonylurea receptor in regulating human adipocyte metabolism,” FASEB. J. (1999) pp. 1833-38, vol. 13). […]

nVDR = conditions: cited from earlier work
human adipocytes [7] = assay: GPDH activity in human adipocytes (Example 4); assay type: cell-based
Description: A human adipocyte cell line and primary-cultured human adipocytes were both used as cell models in this study. The human adipocyte cell line was differentiated from human preadipocytes obtained from Zen-Bio Inc. (Research Triangle Park, N.C.). Human preadipocytes were inoculated in Dulbecco's Modified Eagle' Medium (DMEM)/Ham' F-10 medium (F-10) (1:1, v/v) containing 10% fetal bovine serum (FBS), 15mM Hepes and antibiotics at a density of 30,000 cells/cm^2. Confluent monolayers of preadipocytes were induced to differentiate with a standard differentiation medium consisting of DMEM/F-10 (1:1, v/v) medium supplemented with 15 mM Hepes, 3% FBS, 33 μM biotin, 17 μM pantothenate, 100 nM insulin, 0.25 mM methylisobutylxanthine (MIX), 1 μM dexamethasome, 1 μM BRL49653 and antibiotics. Preadipocytes were maintained in this differentiation medium for 3 days and subsequently cultured in adipocyte medium in which BRL49653 and MIX were withdrawn. Cultures were re-fed every 2-3 days (Shi, H., et al., “Role of intracellular calcium in human adipocyte differentiation,” Phyisol. Genomics. (2000) pp. 75-82, vol. 3.). Primary-cultured human adipocytes were derived from human subcutaneous adipose tissue obtained from patients undergoing abdominal plastic surgery with no known history of metabolic disorders. This protocol was approved by the Institutional Review Board for Human Subjects and the Committee for Research Participation of the University of Tennessee. Adipocytes were isolated according to the teachings of (Shi, H., et al., “Role of the sulfonylurea receptor in regulating human adipocyte metabolism,” FASEB. J. (1999) pp. 1833-38, vol. 13.). Briefly, adipose tissue was first washed several times with Hank's Balanced Salt Solution, minced into small pieces and digested with 1 mg/ml type1 collagenase in a shaking water bath at 37° C. for 30 min. Adipocytes were then filtered through a sterile 500 μm nylon mesh and cultured in Dulbecco's Modified Eagle's Medium (DMEM) supplemented with 1% fetal bovine serum (FBS), 100 UI/ml penicillin, 100 μg/ml streptomycin and 50 μg/ml gentamicin. Cells were cultured in suspension and maintained in a thin layer at the top of culture media, which were changed every day. Cells were maintained viable and metabolically responsive under this culture condition for 7 days. FAS and GPDH activity was determined spectrophotometrically in crude cytosolic extracts of human adipocytes as previously described (Shi, H., et al., “Role of the sulfonylurea receptor in regulating human adipocyte metabolism,” FASEB. J. (1999) pp. 1833-38, vol. 13). Human adipocytes were homogenized in 250 mmol/L sucrose solution containing 1 mmol/L ethylenediamine-tetraacticacid (EDTA), 1 mmol/L dithiothreitol (DTT), and 100 μmol/L phenylmethylsulfonyl fluoride (PMSF) (pH 7.4). […]

human adipocytes [8] = assay: FAS mRNA expression in human adipocytes, Northern blot (Example 4); assay type: cell-based
Description: A human adipocyte cell line and primary-cultured human adipocytes were both used as cell models in this study. The human adipocyte cell line was differentiated from human preadipocytes obtained from Zen-Bio Inc. (Research Triangle Park, N.C.). Human preadipocytes were inoculated in Dulbecco's Modified Eagle' Medium (DMEM)/Ham' F-10 medium (F-10) (1:1, v/v) containing 10% fetal bovine serum (FBS), 15mM Hepes and antibiotics at a density of 30,000 cells/cm^2. Confluent monolayers of preadipocytes were induced to differentiate with a standard differentiation medium consisting of DMEM/F-10 (1:1, v/v) medium supplemented with 15 mM Hepes, 3% FBS, 33 μM biotin, 17 μM pantothenate, 100 nM insulin, 0.25 mM methylisobutylxanthine (MIX), 1 μM dexamethasome, 1 μM BRL49653 and antibiotics. Preadipocytes were maintained in this differentiation medium for 3 days and subsequently cultured in adipocyte medium in which BRL49653 and MIX were withdrawn. Cultures were re-fed every 2-3 days (Shi, H., et al., “Role of intracellular calcium in human adipocyte differentiation,” Phyisol. Genomics. (2000) pp. 75-82, vol. 3.). Primary-cultured human adipocytes were derived from human subcutaneous adipose tissue obtained from patients undergoing abdominal plastic surgery with no known history of metabolic disorders. This protocol was approved by the Institutional Review Board for Human Subjects and the Committee for Research Participation of the University of Tennessee. Adipocytes were isolated according to the teachings of (Shi, H., et al., “Role of the sulfonylurea receptor in regulating human adipocyte metabolism,” FASEB. J. (1999) pp. 1833-38, vol. 13.). Briefly, adipose tissue was first washed several times with Hank's Balanced Salt Solution, minced into small pieces and digested with 1 mg/ml type1 collagenase in a shaking water bath at 37° C. for 30 min. […] ZERO-Dscan software (Scanalytics, Inc, Fairfax, Va.) was used to quantitatively analyze these images.

Compound: CC(C)NCC(O)c1ccc(O)c(O)c1 (centres unmarked) [isoproterenol]
increase in lipolysis (human adipocytes [1]): 3.2 fold

EC50 (human adipocytes [2]): ~10 nM
Compound: parathyroid hormone [PTH]
effect on lipolysis (human adipocytes [3]): little effect

Compound: C[C@H](CCCC(C)(C)O)[C@H]1CC[C@H]2C3=CC=C4C[C@@H](O)C[C@H](O)[C@@]4(C)[C@@H]3CC[C@]12C [1α,25-(OH)2-lumisterol3, 1α,25-dihydroxylumisterol3]
inhibition of adipocyte basal lipolysis (human adipocytes [4]): 50%
[Ca2+]i response in human adipocytes (human adipocytes [5]): marked dose-responsive increases
increase in FAS activity (human adipocytes [6]; human adipocytes): 2.5 fold
binding affinity to nVDR (nVDR): low binding affinity
stimulation of GPDH activity (human adipocytes [7]; human adipocytes): 2.8 fold
increase in FAS mRNA expression (human adipocytes [8]): 2.5 fold
inhibition of isoproterenol-stimulated lipolysis (human adipocytes [1]): 53%

Compound: C=C1/C(=C\C=C2/CCC[C@]3(C)[C@@H]([C@H](C)CCCC(C)(C)O)CC[C@@H]23)C[C@@H](O)C[C@@H]1O [1α,25-(OH)2-D3, 1α,25-Dihydroxyvitamin D3]
[Ca2+]i response in human adipocytes (human adipocytes [5]): significant increase of [Ca^2+]i in human adipocyte in a dose-dependent manner
increase in adipocyte FAS activity (human adipocytes [6]; 5 nM, over 48 hrs): 40%
increase in human adipocyte GPDH activity (human adipocytes [7]; 5 nM): 50%
increase in FAS mRNA expression (human adipocytes [8]): 2 fold

Compound: C=C1/C(=C\C=C2/CCC[C@]3(C)[C@@H]([C@H](C)CCCC(C)(C)O)CC[C@@H]23)C[C@@H](O)C[C@H]1O [1β,25-(OH)2-D3, 1β,25-dihydroxyvitamin D3]
effect of pre-treatment on 1α,25-(OH)2-lumisterol3-induced increases in [Ca2+]i (human adipocytes [5]; pre-treatment of human adipocytes): completely prevented
effect of pretreatment on stimulation of FAS activity (human adipocytes [6]; pretreatment of human adipocytes): completely prevented
effects on nVDR (nVDR): no effects
effect on 1α,25-(OH)2-D3 stimulated GPDH activity (human adipocytes [7]; human adipocytes): little effect
effect on 1α,25-(OH)2-lumisterol3 stimulated GPDH activity (human adipocytes [7]; human adipocytes): markedly inhibited
effect on stimulation of FAS mRNA expression (human adipocytes [8]): completely blocked
